Test results as given in PubChem BioAssay AID651807 (Broad Institute, 2012).
“And” between values parts separate entries of the source, which are not always exact repeats. Equal values may be shown once. Results filed as inconclusive are left out. The source made the active and inactive calls.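 The calls were made as follows: active = fitted curve rises past 40% activation at or below the top valid concentration, in every replicate test; inconclusive = replicate tests give mixed outcomes; inactive = all replicate tests inactive, or signal moves in the opposite direction.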

Tests used:
[1] = activators of Nrf2/ARE beta-lactamase reporter, dose response, Keap1-Nrf2 interaction inhibitor project, cell-based, ARE-bla HepG2, dry powder, set 4 (AID 651807); conditions: ARE-bla HepG2, beta-lactamase FRET ratio 460/530
[2] = test system: ARE-bla HepG2, beta-lactamase FRET ratio 460/530; assay: as above

Compound	activation ([1]; at 68 µM (top of the series))	AC40 [2]	also measured
O=C(O)C1CCCCC1C(=O)Nc1ccccc1CN1C(=O)c2ccccc2C1=O (stereo not drawn)	6.93% (inactive)	–	–
O=C(O)c1ccccc1C(=O)N1CCc2ccccc2C1CN1C(=O)c2ccccc2C1=O (stereo not drawn)	–	41.3 µM	–
O=C(O)[C@H]1CCCC[C@H]1C(=O)N1CCc2ccccc2[C@H]1CNc1nc(Cl)nc2ccccc12	-4.32% (inactive)	–	–
Cc1ccc(S(=O)(=O)NC(=O)[C@@H]2c3ccccc3CCN2C(=O)[C@@H]2CCCC[C@@H]2C(=O)O)cc1	13.2% (inactive) and 28.7% (inactive)	–	–
Cc1ccc(S(=O)(=O)NC[C@@H]2c3ccccc3CCN2C(=O)[C@@H]2CCCC[C@@H]2C(=O)O)c(C)c1	29.9% (inactive)	–	–
O=C1c2ccccc2C(=O)N1C[C@H]1NCCc2ccccc21	43.8% (inactive)	–	–
COC(=O)[C@@H]1CCCC[C@@H]1C(=O)N1CCc2ccccc2[C@H]1CN1C(=O)c2ccccc2C1=O	25.5% (inactive)	–	–
Cc1cc(C)c(S(=O)(=O)Nc2nc(N(C)C)nc3ccccc23)c(C)c1	-5.99% (inactive)	–	–
COC(=O)CNc1nc(NS(=O)(=O)c2c(C)cc(C)cc2C)c2ccccc2n1	-4.15% (inactive)	–	–
O=C(NC[C@@H]1c2ccccc2CCN1C(=O)[C@@H]1CCCC[C@@H]1C(=O)O)OCC1c2ccccc2-c2ccccc21	-31.2% (inactive)	–	–
COc1ccc(CCN=C2C=C(NS(=O)(=O)c3c(C)cc(C)cc3C)c3ccccc3C2=O)cc1	–	10.6 µM	–
Cc1cc(C)c(S(=O)(=O)Nc2nc(NCCO)nc3ccccc23)c(C)c1	-10.1% (inactive)	–	–
O=C(O)C1CCCCC1C(=O)N1CCc2ccccc2[C@H]1C(=O)NC12CC3CC(CC(C3)C1)C2 (stereo partly drawn)	–	45.6 µM	–
O=S(=O)(Nc1nc(NCC2CCCCC2)nc2ccccc12)c1ccccc1	–	32.2 µM	–
Cc1ccccc1S(=O)(=O)Nc1cc(C(C(=O)OC(C)C)C(=O)C(F)(F)F)c(O)c2ccccc12 (stereo not drawn)	–	8.84 µM	–
Cc1cc(C)c(S(=O)(=O)Nc2cc(C(C(=O)OCc3ccccc3)C(=O)OCc3ccccc3)c(O)c3ccccc23)c(C)c1	–	32.7 µM	–
O=C(O)[C@@H]1CCCN1C(=O)N1CCc2ccccc2[C@H]1CN1C(=O)c2ccccc2C1=O	27% (inactive)	–	–
O=C(O)c1ccccc1C(=O)NC[C@@H]1c2ccccc2CCN1C(=O)[C@@H]1CCCC[C@@H]1C(=O)O	23.5% (inactive)	–	–
O=C1c2ccccc2C(=O)N1C[C@@H]1c2ccccc2CCN1C(=O)OCc1ccccc1	–	38.2 µM	–
O=C(Cc1ccccc1)NC[C@@H]1c2ccccc2CCN1C(=O)[C@@H]1CCCC[C@@H]1C(=O)O	6.95% (inactive)	–	–
O=C(NC[C@@H]1c2ccccc2CCN1C(=O)[C@@H]1CCCC[C@@H]1C(=O)O)c1ccccc1	6.57% (inactive)	–	–
CC(C)OC(=O)C(C(=O)C(F)(F)F)c1cc(NS(=O)(=O)c2ccccc2)c2ccccc2c1O (stereo not drawn)	–	27.2 µM	–

Compound	activation ([1]; at 68 µM (top of the series))	AC40 [2]	also measured
O=C(NCCc1ccccc1)c1ccccc1C(=O)NC[C@@H]1c2ccccc2CCN1C(=O)C1CCCCC1C(=O)O (stereo partly drawn)	–	17 µM	–
O=C(O)C1CCCCC1C(=O)N1CCCCC1CN1C(=O)c2ccccc2C1=O (stereo not drawn)	16.6% (inactive)	–	–
O=C(O)C1CCCCC1C(=O)NCC1c2ccccc2CCN1C(=O)Cc1ccccc1 (stereo not drawn)	20.2% (inactive)	–	–
COc1ccccc1CCNC(=O)[C@@H]1c2ccccc2CCN1C(=O)C1CCCCC1C(=O)O (stereo partly drawn)	-0.279% (inactive)	–	–
Cc1cc(C)c(S(=O)(=O)Nc2nc(C(C(=O)OC(C)C)C(=O)C(F)(F)F)nc3ccccc23)c(C)c1 (stereo not drawn)	–	27.3 µM	–
O=C(O)C1CCCCC1C(=O)N1CCc2ccccc2C1CN1C(=O)[C@H]2CCCC[C@H]2C1=O (stereo partly drawn)	–	29.1 µM	–
O=C(O)[C@H]1CCCC[C@H]1C(=O)N1CCc2ccccc2C1CCN1C(=O)c2ccccc2C1=O (stereo partly drawn)	17.3% (inactive)	–	–
NC(=O)c1ccccc1C(=O)NC[C@@H]1c2ccccc2CCN1C(=O)[C@@H]1CCCC[C@@H]1C(=O)O	–	48.7 µM	–
O=C(NC[C@@H]1c2ccccc2CCN1C(=O)[C@@H]1CCCC[C@@H]1C(=O)O)c1ccccc1CO	11% (inactive)	–	–
Cc1ccc(S(=O)(=O)NNc2nc(C(C(=O)OC(C)C)C(=O)C(F)(F)F)nc3ccccc23)cc1 (stereo not drawn)	–	33 µM	–
O=C(NC[C@@H]1c2ccccc2CCN1C(=O)[C@@H]1CCCC[C@@H]1C(=O)O)c1ccc(CN2CCOCC2)cc1	13.2% (inactive)	–	–
Cc1cc(C)c(S(=O)(=O)Nc2cc(C(C(=O)OC(C)C)C(=O)C(F)(F)F)c(O)c3ccccc23)c(C)c1 (stereo not drawn)	–	4.2 µM	–
O=C1c2ccccc2C(=O)N1CC1c2ccccc2CCN1C(=O)Cc1ccccc1 (stereo not drawn)	–	–	activation ([1]; at 16 µM (top of the series)): 14.7% (inactive)
Cc1ccc(S(=O)(=O)NNc2nc(N3CC(O)CC3C(=O)O)nc3ccccc23)cc1 (stereo not drawn)	–	13.5 µM	–
O=C(O)[C@H]1CCCC[C@H]1C(=O)NC(CN1C(=O)c2ccccc2C1=O)c1ccccc1 (stereo partly drawn)	25.2% (inactive)	–	–
O=C(O)C1CCCCC1C(=O)N1CCc2ccccc2C1CN1C(=O)c2ccccc2S1(=O)=O (stereo not drawn)	35% (inactive)	–	–
Cc1ccc(S(=O)(=O)Nc2cc(C(C(=O)OC(C)C)C(=O)C(F)(F)F)c(O)c3ccccc23)c(C)c1 (stereo not drawn)	–	10.5 µM	–
O=C1c2ccccc2C(=O)N1CC1=NCCc2ccccc21	9.14% (inactive)	–	–
Cc1ccc(S(=O)(=O)Nc2cc(C(C(=O)OC(C)C)C(=O)C(F)(F)F)c(O)c3ccccc23)cc1 (stereo not drawn)	–	9.52 µM	–
O=C(O)CC(=O)N1CCc2ccccc2C1CN1C(=O)c2ccccc2C1=O (stereo not drawn)	31.6% (inactive)	–	–
O=C(O)C1CCCCC1C(=O)N1CCc2ccccc2[C@H]1C(=O)NCCc1ccccc1 (stereo partly drawn)	2.65% (inactive)	–	–
